Laboratory results published in patent US20210040073A1, “AZABICYCLO-SUBSTITUTED TRIAZOLE DERIVATIVE, PREPARATION METHOD THEREOF, AND APPLICATION OF SAME IN MEDICINE” (Jiangsu Hengrui Medicine Co., Ltd., priority 2016, published 2021).

How the values were obtained:
Type in all cases: cell-based
[1] = target: T1, human OTR (Homo sapiens, UniProt P30559); assay: Inhibition activity on human OTR (Fluo-4 calcium assay, HEK293/human OTR stably transfected cells, oxytocin 3 nM); conditions: calcium signal
T1 construct: expressed in transfected cells
T1 sequence (P30559 1-389): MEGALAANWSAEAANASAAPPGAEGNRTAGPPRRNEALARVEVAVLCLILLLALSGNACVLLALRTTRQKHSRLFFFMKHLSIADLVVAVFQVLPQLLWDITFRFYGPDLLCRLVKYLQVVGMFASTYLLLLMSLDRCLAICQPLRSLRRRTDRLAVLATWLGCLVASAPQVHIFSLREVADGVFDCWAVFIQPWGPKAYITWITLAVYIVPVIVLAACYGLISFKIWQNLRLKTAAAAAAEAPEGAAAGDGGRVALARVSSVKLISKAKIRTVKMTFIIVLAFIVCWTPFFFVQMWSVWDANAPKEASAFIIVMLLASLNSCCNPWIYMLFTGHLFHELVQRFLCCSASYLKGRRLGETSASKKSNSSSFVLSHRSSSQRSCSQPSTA
Procedure: The inhibition effect of the compounds of the present invention on the activity of human OTR protein expressed in HEK293/human OTR stably transfected cells was determined by the following experimental method:
The pcDNA3.1-hOTR plasmid was transferred into HEK293 cells with the Lipofectamine® 3000 transfection reagent; G418 was added on the next day to screen, and monoclonal cell lines were selected.
(§1) HEK293/human OTR stably transfected cells were inoculated in a 96-well plate with an inoculation density of 25,000 cells/well one day in advance. On the next day, a loading buffer containing Fluo-4 dye was formulated using the reagents in the Fluo-4 NW calcium assay kit, and the culture medium was then removed; 100 μl of the loading buffer containing Fluo-4 dye were added to each well, and the plate was incubated at 37° C. for 30 minutes. After that, the plate was moved to room temperature and equilibrated for 10 minutes. The compounds were formulated into concentration gradients of 10^6, 10^5, 10^4, 10^3, 10^2 and 10^1 nM. 1 μl of the compounds in each concentration was added to each well, and the plate was incubated at room temperature for 10 minutes. 50 μl of oxytocin polypeptide (3 nM) were automatically added by the machine, and the values were immediately detected at 494/516 nM by the flexstation 3 microplate reader. IC50 values of the compounds were calculated by Graphpad prism software using fluorescence signals corresponding to different concentrations.
The inhibition activity of the compounds of the present invention on human OTR was determined by the above test, and the obtained IC50 values are shown in Table 1.

[2] = target: T2, human V1aR (Homo sapiens, UniProt P37288); assay: Inhibition activity on human V1aR (Fluo-4 calcium assay, HEK293/human V1aR stably transfected cells, vasopressin 3 nM); conditions: calcium signal
T2 construct: expressed in transfected cells
Procedure: The inhibition effect of the compounds of the present invention on the activity of human V1aR protein expressed in HEK293/human V1aR stably transfected cells was determined by the following experimental method:
The pcDNA3.1-V1aR plasmid was transferred into HEK293 cells with the Lipofectamine® 3000 transfection reagent; G418 was added on the next day to screen, and monoclonal cell lines were selected.
as §1, with “V1aR” for “OTR”, “50 μl of oxytocin polypeptide (3 nM) were automatically added by the machine, and the values were immediately detected at 494/516 nM by the flexstation 3 microplate reader.” left out
The inhibition activity of the compounds of the present invention on human V1aR was determined by the above test, and the obtained IC50 values are shown in Table 2.

[3] = target: T3, human V2R (Homo sapiens, UniProt P30518); assay: Inhibition activity on human V2R (cAMP HTRF assay, HEK293/human V2R pool cells, vasopressin)
T3 construct: expressed in transfected cells; host or cells: HEK293 (G418-selected pool)
Procedure: The inhibition effect of the compounds of the present invention on the activity of human V2R protein expressed in HEK293/human V2R cells was determined by the following experimental method:
The pcDNA3.1-V2R plasmid was transferred into HEK293 cells with the Lipofectamine® 3000 transfection reagent; G418 was added on the next day, and the HEK293/human V2R pool cell lines were obtained.
HEK293/human V2R pool cells were digested with the cell dissociation solution (enzyme-free), thereby dissociating the cells from the cell culture dish into individual cells. After completion, the cell solution was blown well, and centrifuged to remove the supernatant. The cells were re-suspended in the test buffer 1 (1×HBSS+20 mM HEPES+0.1% BSA) and counted. The cell density was adjusted to 1250 cells/5 μl, i.e., 2.5*10^5/ml.
The compounds were formulated into a series of concentrations of 20 mM, 6.67 mM, 2.22 mM, 0.74 mM, 0.25 mM, 0.08 mM, 27.4 μM, 9.14 μM, 3.05 μM, 1.02 μM, 0.34 μM and 0 μM (DMSO) with pure DMSO. The compounds were then formulated into a 4-fold use concentration with the test buffer 2 (test buffer 1+1 mM IBMX).
Agonist: 460 μM vasopressin was used as the mother liquor, formulated as a 2 μM solution with DMSO, which was then diluted to a 0.5 nM solution with the test buffer 2.
Standard: The first point was 20 μl of a stock solution (2848 nM), which was diluted successively to a total of eleven concentrations in a 4-fold concentration gradient with the test buffer 1 from the second point.
1. The well-mixed cells were added to a 384-well plate (5 μl/well) without changing the tip.
2. The test compounds and positive compound formulated were added (2.5 μl/well), and the tips were changed.
3. The plate was centrifuged at 1000 rpm for 1 min, shaken for 30 sec to mix well, and incubated at room temperature for 30 min.
4. The standard curve wells were added with the test buffer 2 (5 μl/well).
5. The agonist formulated was added (2.5 μl/well), and the tips were changed; the plate was centrifuged at 1000 rpm for 1 min, shaken for 30 sec to mix well, and incubated at room temperature for 30 min.
6. cAMP-d2 (a component in the cAMP dynamic 2 kit) and Anti-cAMP-Eu-Cryptate (a component in the cAMP dynamic 2 kit) were formulated in the dark, which were then mixed well with cAMP lysate (a component in the cAMP dynamic 2 kit) in a ratio of 1:4. Each well was added with the formulated cAMP-d2 solution (5 μl/well), followed by addition of Anti-cAMP-Eu-Cryptate (5 μl/well). The plate was shaken for 30 sec to mix well, and incubated in the dark at room temperature for 1 h.
4) Plate reading: The HTRF signals were read by the PheraStar multi-function microplate reader.
The data in this test was processed using the data processing software Graphpad Prism.
The inhibition activity of the compounds of the present invention on human V2R was determined by the above test, and the obtained IC50 values are shown in Table 4.

T3 sequence (P30518 whole entry): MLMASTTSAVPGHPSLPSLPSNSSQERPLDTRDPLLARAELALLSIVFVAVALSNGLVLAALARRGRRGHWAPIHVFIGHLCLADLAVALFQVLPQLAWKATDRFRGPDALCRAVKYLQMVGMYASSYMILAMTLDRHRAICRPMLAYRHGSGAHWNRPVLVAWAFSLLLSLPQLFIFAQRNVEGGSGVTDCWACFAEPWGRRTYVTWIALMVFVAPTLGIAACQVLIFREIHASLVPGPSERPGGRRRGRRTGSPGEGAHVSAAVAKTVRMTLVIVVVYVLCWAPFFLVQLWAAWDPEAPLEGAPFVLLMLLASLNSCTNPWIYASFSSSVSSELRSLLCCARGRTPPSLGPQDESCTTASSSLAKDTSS
T2 sequence (P37288 whole entry): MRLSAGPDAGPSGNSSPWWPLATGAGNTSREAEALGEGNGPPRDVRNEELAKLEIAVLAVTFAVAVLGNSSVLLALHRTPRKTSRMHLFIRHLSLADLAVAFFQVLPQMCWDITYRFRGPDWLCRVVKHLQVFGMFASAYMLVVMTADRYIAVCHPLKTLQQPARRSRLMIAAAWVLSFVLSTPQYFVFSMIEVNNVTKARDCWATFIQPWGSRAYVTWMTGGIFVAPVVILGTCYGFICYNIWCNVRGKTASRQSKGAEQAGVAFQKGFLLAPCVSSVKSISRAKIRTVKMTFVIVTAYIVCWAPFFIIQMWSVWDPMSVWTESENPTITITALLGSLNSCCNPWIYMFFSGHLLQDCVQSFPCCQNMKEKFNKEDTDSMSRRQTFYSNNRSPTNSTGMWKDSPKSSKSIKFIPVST

Compound | IC50 [1] [µM] | IC50 [2] [µM] | IC50 [3] [µM]
COc1ccc(-n2c(COCCF)nnc2N2C[C@@H]3C[C@]3(c3ccc(F)cc3Cl)C2)cn1 [Example 1, (1S,5R)-1-(2-Chloro-4-fluorophenyl)-3-(5-((2-fluoroethoxy)methyl)-4-(6-methoxypyridin-3-yl)-4H-1,2,4-triazol-3-yl)-3-azabicyclo[3.1.0]hexane] | 0.044 | 1 | 21.4
COc1ccc(-n2c(N3C[C@@H]4C[C@]4(c4ccc(F)cc4Cl)C3)nnc2C(F)(F)F)cn1 [Example 12, (1S,5R)-1-(2-Chloro-4-fluorophenyl)-3-(4-(6-methoxypyridin-3-yl)-5-(trifluoromethyl)-4H-1,2,4-triazol-3-yl)-3-azabicyclo[3.1.0]hexane] | 0.03 | 3.6 | 29.5
CCOCc1nnc(N2C[C@@H]3C[C@]3(c3ccc(F)cc3Cl)C2)n1-c1ccc(OC)nc1 [Example 6, (1S,5R)-1-(2-Chloro-4-fluorophenyl)-3-(5-(ethoxymethyl)-4-(6-methoxypyridin-3-yl)-4H-1,2,4-triazol-3-yl)-3-azabicyclo[3.1.0]hexane] | 0.0043 | 1.7 | 7.3
COCc1nnc(N2C[C@@H]3C[C@]3(c3ccc(F)cc3Cl)C2)n1-c1ccc(OC)nc1 [Example 9, (1S,5R)-1-(2-Chloro-4-fluorophenyl)-3-(5-(methoxymethyl)-4-(6-methoxypyridin-3-yl)-4H-1,2,4-triazol-3-yl)-3-azabicyclo[3.1.0]hexane] | 0.014 | 2.9 | 32.6
COCc1nnc(N2C[C@@H]3C[C@]3(c3cccc(F)c3Cl)C2)n1-c1ccc(OC)nc1 [Example 4, (1S,5R)-1-(2-Chloro-3-fluorophenyl)-3-(5-(methoxymethyl)-4-(6-methoxypyridin-3-yl)-4H-1,2,4-triazol-3-yl)-3-azabicyclo[3.1.0]hexane] | 0.029 | 3.8 | 25.7
